Experiments:
Assay in all cases: KinaseProfiler kinase profiling
Type in all cases: biochemical
Conditions in all cases: 10 μM, ATP near Km
[1] = target: T1, PKCzeta (Homo sapiens, UniProt Q05513)
T1 construct: purchased Millipore, Inc. (KinaseProfiler service)
How it was run: (§1)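 Single test compound screened at 10 μM against each kinase, with ATP near the Km of that kinase. Run in duplicate. Activity is given as percent of control, the mean of both replicates.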

[2] = target: T2, PKCepsilon (Homo sapiens, UniProt Q02156)
T2 construct: purchased Millipore, Inc. (KinaseProfiler service)
T2 sequence (Q02156 whole entry): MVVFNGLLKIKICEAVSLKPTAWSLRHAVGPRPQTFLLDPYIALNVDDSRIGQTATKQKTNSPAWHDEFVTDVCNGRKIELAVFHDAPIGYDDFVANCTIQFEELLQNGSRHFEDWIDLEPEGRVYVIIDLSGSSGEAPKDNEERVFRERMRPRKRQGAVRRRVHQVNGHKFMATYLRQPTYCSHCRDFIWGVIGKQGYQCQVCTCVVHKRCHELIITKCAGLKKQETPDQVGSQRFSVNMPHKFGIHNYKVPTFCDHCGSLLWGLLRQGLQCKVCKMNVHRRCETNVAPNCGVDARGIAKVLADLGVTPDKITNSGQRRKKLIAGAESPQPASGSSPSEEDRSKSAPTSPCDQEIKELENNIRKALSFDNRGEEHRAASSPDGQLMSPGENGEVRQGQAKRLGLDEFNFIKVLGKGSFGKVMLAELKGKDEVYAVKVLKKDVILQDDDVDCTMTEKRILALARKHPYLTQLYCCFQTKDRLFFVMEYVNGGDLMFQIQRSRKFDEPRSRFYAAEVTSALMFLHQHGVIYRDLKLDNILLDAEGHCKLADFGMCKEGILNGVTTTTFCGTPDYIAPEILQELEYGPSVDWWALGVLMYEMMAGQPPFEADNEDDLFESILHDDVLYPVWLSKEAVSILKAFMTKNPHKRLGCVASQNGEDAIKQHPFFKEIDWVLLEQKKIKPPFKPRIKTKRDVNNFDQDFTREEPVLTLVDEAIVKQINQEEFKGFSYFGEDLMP
How it was run: as §1

[3] = target: T3, AKT3 (Homo sapiens, UniProt Q9Y243)
T3 construct: purchased Millipore, Inc. (KinaseProfiler service)
How it was run: as §1

[4] = target: T4, GRK6 (Homo sapiens, UniProt P43250)
T4 construct: purchased Millipore, Inc. (KinaseProfiler service)
How it was run: as §1

[5] = target: T5, MRCKalpha (Homo sapiens, UniProt Q5VT25)
T5 construct: purchased Millipore, Inc. (KinaseProfiler service)
How it was run: as §1

[6] = target: T6, CAMK2g (Homo sapiens, UniProt Q13555)
T6 construct: purchased Millipore, Inc. (KinaseProfiler service)
How it was run: as §1

[7] = target: T7, Lck (Homo sapiens, UniProt P06239)
T7 construct: purchased Millipore, Inc. (KinaseProfiler service)
How it was run: as §1

[8] = target: T8, ZAP-70 (Homo sapiens, UniProt P43403)
T8 construct: purchased Millipore, Inc. (KinaseProfiler service)
T8 sequence (P43403 whole entry): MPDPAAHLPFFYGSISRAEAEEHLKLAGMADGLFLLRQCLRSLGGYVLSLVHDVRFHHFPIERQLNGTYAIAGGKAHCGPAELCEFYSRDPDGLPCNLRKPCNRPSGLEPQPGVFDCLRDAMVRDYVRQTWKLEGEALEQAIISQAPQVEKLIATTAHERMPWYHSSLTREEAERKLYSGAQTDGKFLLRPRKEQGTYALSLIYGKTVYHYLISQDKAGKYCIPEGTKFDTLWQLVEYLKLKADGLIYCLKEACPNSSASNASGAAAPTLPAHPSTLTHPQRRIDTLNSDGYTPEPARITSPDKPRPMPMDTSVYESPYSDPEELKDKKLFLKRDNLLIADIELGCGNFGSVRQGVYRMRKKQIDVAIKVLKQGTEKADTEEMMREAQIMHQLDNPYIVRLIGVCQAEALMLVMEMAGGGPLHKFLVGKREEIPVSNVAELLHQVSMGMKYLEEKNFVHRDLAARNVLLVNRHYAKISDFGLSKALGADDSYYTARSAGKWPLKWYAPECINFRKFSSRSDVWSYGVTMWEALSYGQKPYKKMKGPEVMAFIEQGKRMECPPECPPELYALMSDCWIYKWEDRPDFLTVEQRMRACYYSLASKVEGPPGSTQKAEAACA
How it was run: as §1

[9] = target: T9, DCAMKL2 (Homo sapiens, UniProt Q8N568)
T9 construct: purchased Millipore, Inc. (KinaseProfiler service)
How it was run: as §1

[10] = target: T10, EphA5 (Homo sapiens, UniProt P54756)
T10 construct: purchased Millipore, Inc. (KinaseProfiler service)
How it was run: as §1

[11] = target: T11, BrSK2 (Homo sapiens, UniProt Q8IWQ3)
T11 construct: purchased Millipore, Inc. (KinaseProfiler service)
How it was run: as §1

[12] = target: T12, FGFR4 (Homo sapiens, UniProt P22455)
T12 construct: purchased Millipore, Inc. (KinaseProfiler service)
How it was run: as §1

[13] = target: T13, ALK (Homo sapiens, UniProt Q9UM73)
T13 construct: purchased Millipore, Inc. (KinaseProfiler service)
How it was run: as §1

[14] = target: T14, PKAC-alpha (Homo sapiens, UniProt P17612)
T14 construct: purchased Millipore, Inc. (KinaseProfiler service)
How it was run: as §1

[15] = target: T15, SRPK2 (Homo sapiens, UniProt P78362)
T15 construct: purchased Millipore, Inc. (KinaseProfiler service)
How it was run: as §1

[16] = target: T16, IR Activated (Homo sapiens, UniProt P06213)
T16 construct: purchased Millipore, Inc. (KinaseProfiler service)
T16 sequence (P06213 1005-1310 limits assumed): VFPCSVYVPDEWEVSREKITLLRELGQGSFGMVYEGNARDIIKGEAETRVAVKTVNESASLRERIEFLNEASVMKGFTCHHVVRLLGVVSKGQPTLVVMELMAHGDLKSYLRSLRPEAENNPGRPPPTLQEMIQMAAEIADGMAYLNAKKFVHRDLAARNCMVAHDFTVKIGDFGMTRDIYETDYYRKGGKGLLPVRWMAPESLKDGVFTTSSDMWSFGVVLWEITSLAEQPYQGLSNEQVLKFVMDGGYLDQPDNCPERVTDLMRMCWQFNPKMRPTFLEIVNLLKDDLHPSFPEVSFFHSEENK
How it was run: as §1

[17] = target: T17, p38delta (Homo sapiens, UniProt O15264)
T17 construct: purchased Millipore, Inc. (KinaseProfiler service)
T17 sequence (O15264 whole entry): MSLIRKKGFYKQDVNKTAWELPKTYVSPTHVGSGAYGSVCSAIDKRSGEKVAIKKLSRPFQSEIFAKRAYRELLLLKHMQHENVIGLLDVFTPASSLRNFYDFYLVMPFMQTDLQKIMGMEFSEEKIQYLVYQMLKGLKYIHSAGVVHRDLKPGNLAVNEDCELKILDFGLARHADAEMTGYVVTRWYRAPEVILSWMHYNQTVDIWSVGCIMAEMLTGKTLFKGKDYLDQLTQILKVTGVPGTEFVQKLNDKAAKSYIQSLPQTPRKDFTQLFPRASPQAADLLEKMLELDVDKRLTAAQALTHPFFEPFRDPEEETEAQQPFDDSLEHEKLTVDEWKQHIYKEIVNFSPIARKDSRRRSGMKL
How it was run: as §1

[18] = target: T18, ErbB4 (Homo sapiens, UniProt Q15303)
T18 construct: purchased Millipore, Inc. (KinaseProfiler service)
How it was run: as §1

[19] = target: T19, Ret (Homo sapiens, UniProt P07949)
T19 construct: purchased Millipore, Inc. (KinaseProfiler service)
How it was run: as §1

[20] = tested on: CK1_y
How it was run: as §1

[21] = target: T20, PKCtheta (Homo sapiens, UniProt Q04759)
T20 construct: purchased Millipore, Inc. (KinaseProfiler service)
T20 sequence (Q04759 whole entry): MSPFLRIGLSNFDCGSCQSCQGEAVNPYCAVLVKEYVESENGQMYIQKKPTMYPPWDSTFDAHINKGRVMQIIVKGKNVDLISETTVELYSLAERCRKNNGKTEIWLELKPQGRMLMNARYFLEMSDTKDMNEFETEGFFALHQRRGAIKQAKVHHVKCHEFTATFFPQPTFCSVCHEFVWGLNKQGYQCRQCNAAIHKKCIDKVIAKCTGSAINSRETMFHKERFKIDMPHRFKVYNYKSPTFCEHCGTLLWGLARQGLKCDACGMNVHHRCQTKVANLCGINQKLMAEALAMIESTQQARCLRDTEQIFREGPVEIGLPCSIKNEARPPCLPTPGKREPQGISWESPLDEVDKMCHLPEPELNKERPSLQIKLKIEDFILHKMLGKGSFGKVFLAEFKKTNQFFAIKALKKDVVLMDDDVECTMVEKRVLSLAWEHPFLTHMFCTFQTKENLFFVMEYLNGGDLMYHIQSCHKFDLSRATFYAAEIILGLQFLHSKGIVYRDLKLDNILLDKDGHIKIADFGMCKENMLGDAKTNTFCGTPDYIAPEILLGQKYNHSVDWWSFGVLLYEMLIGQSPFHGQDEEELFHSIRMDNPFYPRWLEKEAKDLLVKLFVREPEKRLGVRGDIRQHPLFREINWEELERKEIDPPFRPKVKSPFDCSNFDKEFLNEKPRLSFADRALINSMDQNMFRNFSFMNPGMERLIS
How it was run: as §1

[22] = target: T21, DDR2 (Homo sapiens, UniProt Q16832)
T21 construct: purchased Millipore, Inc. (KinaseProfiler service)
How it was run: as §1

[23] = target: T22, TEC Activated (Homo sapiens, UniProt P42680)
T22 construct: purchased Millipore, Inc. (KinaseProfiler service)
T22 sequence (P42680 whole entry): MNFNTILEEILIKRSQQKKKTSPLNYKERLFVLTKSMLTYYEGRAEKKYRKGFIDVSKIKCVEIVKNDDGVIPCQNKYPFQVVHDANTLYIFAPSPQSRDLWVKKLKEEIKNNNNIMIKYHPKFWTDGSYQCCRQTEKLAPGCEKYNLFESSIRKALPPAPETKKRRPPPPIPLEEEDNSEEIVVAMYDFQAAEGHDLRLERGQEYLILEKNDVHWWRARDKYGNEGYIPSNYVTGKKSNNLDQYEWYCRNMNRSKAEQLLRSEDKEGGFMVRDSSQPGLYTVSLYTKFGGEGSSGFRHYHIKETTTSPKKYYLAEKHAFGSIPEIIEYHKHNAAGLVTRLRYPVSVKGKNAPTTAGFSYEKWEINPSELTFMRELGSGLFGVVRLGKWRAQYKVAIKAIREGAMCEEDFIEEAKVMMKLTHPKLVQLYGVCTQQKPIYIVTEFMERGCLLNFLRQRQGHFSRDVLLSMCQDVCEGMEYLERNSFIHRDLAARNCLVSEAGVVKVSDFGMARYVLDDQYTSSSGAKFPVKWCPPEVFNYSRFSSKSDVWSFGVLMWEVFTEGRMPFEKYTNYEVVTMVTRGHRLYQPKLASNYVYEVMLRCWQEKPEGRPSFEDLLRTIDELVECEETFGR
How it was run: as §1

[24] = target: T23, Lyn (Homo sapiens, UniProt P07948)
T23 construct: purchased Millipore, Inc. (KinaseProfiler service)
T23 sequence (P07948 whole entry): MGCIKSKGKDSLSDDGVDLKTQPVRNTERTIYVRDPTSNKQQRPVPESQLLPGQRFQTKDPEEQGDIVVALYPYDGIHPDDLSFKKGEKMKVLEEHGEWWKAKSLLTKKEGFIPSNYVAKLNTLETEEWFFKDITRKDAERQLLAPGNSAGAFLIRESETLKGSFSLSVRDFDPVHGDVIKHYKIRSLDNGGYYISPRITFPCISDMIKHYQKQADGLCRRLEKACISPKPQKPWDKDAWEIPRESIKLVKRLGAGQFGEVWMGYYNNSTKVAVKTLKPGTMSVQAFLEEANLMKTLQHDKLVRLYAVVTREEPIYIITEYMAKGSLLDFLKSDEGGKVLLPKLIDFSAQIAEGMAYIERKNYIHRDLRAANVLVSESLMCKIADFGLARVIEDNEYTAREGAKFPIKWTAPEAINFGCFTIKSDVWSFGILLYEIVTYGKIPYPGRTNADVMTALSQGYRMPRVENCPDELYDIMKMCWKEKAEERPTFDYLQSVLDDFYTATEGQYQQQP
How it was run: as §1

[25] = target: T24, ERK2 (Homo sapiens, UniProt P28482)
T24 construct: purchased Millipore, Inc. (KinaseProfiler service)
T24 sequence (P28482 whole entry): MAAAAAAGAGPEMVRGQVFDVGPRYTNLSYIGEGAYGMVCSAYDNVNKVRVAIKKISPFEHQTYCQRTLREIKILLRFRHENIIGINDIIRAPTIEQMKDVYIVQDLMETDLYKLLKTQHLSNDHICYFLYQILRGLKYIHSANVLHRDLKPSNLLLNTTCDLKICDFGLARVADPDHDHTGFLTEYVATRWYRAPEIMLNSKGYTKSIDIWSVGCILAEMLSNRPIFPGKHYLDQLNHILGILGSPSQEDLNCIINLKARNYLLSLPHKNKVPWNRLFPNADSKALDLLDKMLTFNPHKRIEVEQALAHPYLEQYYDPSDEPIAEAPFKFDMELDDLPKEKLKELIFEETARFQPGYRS
How it was run: as §1

[26] = target: T25, Pim-3 (Homo sapiens, UniProt Q86V86)
T25 construct: purchased Millipore, Inc. (KinaseProfiler service)
How it was run: as §1

[27] = target: T26, JAK3 (Homo sapiens, UniProt P52333)
T26 construct: purchased Millipore, Inc. (KinaseProfiler service)
How it was run: as §1

[28] = target: T27, Tie2 (Homo sapiens, UniProt Q02763)
T27 construct: purchased Millipore, Inc. (KinaseProfiler service)
How it was run: as §1

Avg POC [1]: 97.5 POC
Avg POC [2]: 101.5 POC
Avg POC [3]: 113.5 POC
Avg POC [4]: 98 POC
Avg POC [5]: 90.5 POC
Avg POC [6]: 97 POC
Avg POC [7]: 94 POC
Avg POC [8]: 104.5 POC
Avg POC [9]: 135 POC
Avg POC [10]: 109.5 POC
Avg POC [11]: 104 POC
Avg POC [12]: 105 POC
Avg POC [13]: 89 POC
Avg POC [14]: 129.5 POC
Avg POC [15]: 96.5 POC
Avg POC [16]: 105.5 POC
Avg POC [17]: 105 POC
Avg POC [18]: 107.5 POC
Avg POC [19]: 111.5 POC
Avg POC [20]: 91.5 POC
Avg POC [21]: 128.5 POC
Avg POC [22]: 121.5 POC
Avg POC [23]: 97 POC
Avg POC [24]: 104.5 POC
Avg POC [25]: 100 POC
Avg POC [26]: 106.5 POC
Avg POC [27]: 95.5 POC
Avg POC [28]: 82 POC
SMILES: COCCN1C[C@@H](NC(=O)Nc2c(C)c(-c3cnc(C)nc3)nn2-c2ccccc2)[C@H](c2cccc(F)c2)C1 [Compound 1, 1-((3S,4R)-4-(3-fluorophenyl)-1-(2-methoxyethyl)pyrrolidin-3-yl)-3-(4-methyl-3-(2-methylpyrimidin-5-yl)-1-phenyl-1H-pyrazol-5-yl)urea]
